Data: patent publication US20190211072A1, “TRI-AGONIST FOR THE GLu, GLP-1 AND NPY2 RECEPTORS” (Syracuse University, priority 2018, published 2019)

Key:
human NPY2R = biological target: T1, human NPY2R (Homo sapiens, UniProt P49146); test: cAMP-lowering action in HEK293-H188-C24 cells transfected with NPY2R (adenosine or forskolin pre-stimulation); type: cell-based; conditions: BIIE0246 2 μM; adenosine 2 μM
T1 construct: expressed in transfected cells; host or cells: HEK293-H188-C24 cells
T1 sequence (P49146 1-381): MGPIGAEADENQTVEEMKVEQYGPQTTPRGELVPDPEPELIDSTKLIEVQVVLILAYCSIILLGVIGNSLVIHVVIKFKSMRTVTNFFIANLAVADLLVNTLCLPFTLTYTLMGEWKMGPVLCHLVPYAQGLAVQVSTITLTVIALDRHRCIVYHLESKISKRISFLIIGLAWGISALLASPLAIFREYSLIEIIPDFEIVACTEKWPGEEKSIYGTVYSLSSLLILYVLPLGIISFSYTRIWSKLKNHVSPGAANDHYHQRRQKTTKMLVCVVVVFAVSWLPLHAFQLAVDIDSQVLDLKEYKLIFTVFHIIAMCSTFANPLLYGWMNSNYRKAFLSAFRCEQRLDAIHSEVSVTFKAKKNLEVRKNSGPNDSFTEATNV

GLP-1R = biological target: T2, GLP-1R (Homo sapiens, UniProt P43220); test: LY2409021 block of GGP817 action in HEK293-GLP-1R cells transduced with H188; type: cell-based
T2 construct: expressed in transfected cells; host or cells: HEK293-GLP-1R cells transduced with the H188 cAMP FRET reporter
T2 sequence (P43220 24-463, species assumed): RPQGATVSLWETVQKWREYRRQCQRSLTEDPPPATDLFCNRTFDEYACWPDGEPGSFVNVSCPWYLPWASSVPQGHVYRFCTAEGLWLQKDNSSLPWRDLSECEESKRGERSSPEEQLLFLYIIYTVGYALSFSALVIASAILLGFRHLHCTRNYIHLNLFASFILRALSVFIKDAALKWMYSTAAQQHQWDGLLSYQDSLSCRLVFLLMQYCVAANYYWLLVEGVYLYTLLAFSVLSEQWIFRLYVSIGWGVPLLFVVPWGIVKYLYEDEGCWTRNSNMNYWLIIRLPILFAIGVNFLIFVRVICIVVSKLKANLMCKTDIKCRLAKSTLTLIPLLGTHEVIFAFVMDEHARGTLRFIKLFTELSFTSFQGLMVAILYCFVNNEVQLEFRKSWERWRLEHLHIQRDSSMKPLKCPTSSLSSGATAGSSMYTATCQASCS
Text: (§1) It is increasingly evident that hybrid peptides have the capacity to stimulate multiple GPCRs that participate in metabolic homeostasis.
(§2) This was established by monitoring its ability to stimulate a 60% maximal ΔFRET in the cAMP assay.

GluR = GluR (UniProt P30082); test: LY2409021 block of GGP817 action in HEK293-GluR cells transduced with H188; type: cell-based; conditions: read-out: IC50, block of GGP817 agonist action at the GluR, GGP817 300 nM
Text: as §1, §2

[1] = biological target: T3, human neuropeptide Y2 receptor (NPY2R) (human, UniProt P49146); test: cell-based or functional assay
T3 sequence: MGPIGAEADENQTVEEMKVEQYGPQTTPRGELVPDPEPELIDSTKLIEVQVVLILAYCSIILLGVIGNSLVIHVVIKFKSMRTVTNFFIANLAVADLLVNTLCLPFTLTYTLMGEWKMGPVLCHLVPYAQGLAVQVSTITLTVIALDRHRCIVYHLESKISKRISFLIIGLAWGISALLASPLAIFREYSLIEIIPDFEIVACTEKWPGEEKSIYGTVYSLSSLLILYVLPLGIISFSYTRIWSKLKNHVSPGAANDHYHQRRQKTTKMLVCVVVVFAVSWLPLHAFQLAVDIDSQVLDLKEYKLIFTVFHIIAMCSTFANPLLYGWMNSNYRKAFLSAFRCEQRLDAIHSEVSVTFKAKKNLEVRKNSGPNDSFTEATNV

Molecule: N=C(N)NCCC[C@H](NC(=O)CC1(CC(=O)N2CCN(C3c4ccccc4NC(=O)c4ccccc43)CC2)CCCC1)C(=O)NCCn1c(=O)n(-c2ccccc2)n(-c2ccccc2)c1=O (stereo partly shown) [BIIE0246]
- effect of antagonist on the cAMP-lowering action of GGP817 (human NPY2R): blocked

Molecule: Cc1cc(O[C@@H](CCC(F)(F)F)c2ccc(C(=O)NCCC(=O)O)cc2)cc(C)c1-c1ccc(C(C)(C)C)cc1 [LY2409021]
- IC50 (GLP-1R): 1600 nM
- IC50 (GluR): 908 nM

Molecule: HSQGTFTSDYSKYLDSRRAQDFVQWLMNTRHYLNLVTRQRY (C-terminal amide (-NH2)) [GGP817]
- EC50 of NPY2 receptor agonism (H188 FRET) [1]: ~3000 nM
